Entries after “also recorded” stand apart in the source; their conditions may differ.
Key:
[1] = system: pks operon (PpksC promoter); test: pks expression, PpksC-lux luminescence reporter; assay type: cell-based, B. subtilis; conditions: library of 400 plant metabolites, growth-normalized RLU
Experimental: FIGS. 23A-23B: An ester of caffeic acid induces antibiotic production. (FIG. 23A) Scheme of a screen of plant metabolites for pks induction. (FIG. 23B) Growth-normalized RLU of PpksC-lux strain treated with a small molecule library representative as in A, compared with the treatment in root exudate.
(§1) pks expression analysis. pks expression in the presence of plant metabolites was analyzed as following: the luminescence intensity of cells harboring a PpksC-lux transcriptional promoter fusion was analyzed. Cells were grown to a mid-logarithmic phase, diluted 1:100 in 150 μl liquid MSgg medium, either with or without root exudate. Cells were grown in a 96-well microplate (Thermo Scientific, Roskilde, Denmark) with agitation at 30° C. for 16 h in a microplate reader (Synergy 2, BioTek, Winooski, Vt., USA) measuring luminescence intensity and the optical density at 600 nm (OD600) every 15 min.
A library of 400 plant metabolites was screened for pks induction using B. subtilis cells carrying the PpksC-lux construct (FIG. 23A).

B. subtilis biofilms = test: B. subtilis biofilm stability / maintenance in vitro; assay type: cell-based; conditions: for effect on beneficial biofilms (stability / maintenance), single agent: in vitro, biofilms at day 1 and day 5
Experimental: Shown are biofilms of treated and untreated B. subtilis biofilms.
Strains and Media All experiments were performed with B. subtilis NCBI3610 and its derivatives. Assays were carried out with the biofilm-inducing medium, MSgg: 5 mM potassium phosphate, 100 mM MOPS (pH 7), 2 mM MgCl2, 50 μM MnCl2, 1 μM ZnCl2, 2 μM thiamine, 0.5% glycerol, 0.5% glutamate, 50 μg/ml tryptophan, 50 μg/mlphenylalanine 50 μg/ml threonine, 700 μM CaCl2, and 50 μM (for growth assays) or 125 μM (for biofilm assays) FeCl3^1. A solid MSgg medium was obtained by adding Bacto agar (Difco) to a final concentration of 1.5%. When necessary, selective medium was prepared with LB-agar or LB broth, supplemented with: 100 μg/ml ampicillin (amp) (AG Scientific), or 10 μg/ml kanamycin (kan) (AG Scientific), or 10 μg/ml chloramphenicol (cam) (Amresco), or 10 μg/ml tetracycline (tet) (Amresco), or 100 μg/ml spectinomycin (spec) (Tivan Biotech), or 1 μg/mlerythromycin (erm) (Amresco)+25 μg/ml lincomycin (linc) (Sigma Aldrich).

[2] = system: pseudomonas syringae pv. Tomato; test: Tomato plant survival after pseudomonas syringae pv. Tomato infection (Example 9); assay type: in vivo, tomato plants; conditions: 5 μM caffeic acid or 5 μM putrescine or 2.5 μM each; putrescine read 28 days after infection
Experimental: Bacillus strain B. subtilis 3610 (B.S) are maintained on LB plates. 1000 cells of B.S. with or without the addition of 5 μM of caffeic acid or 5 μM of putrescine, or 2.5 μM each of caffeic acid and putrescine are added to tomato plants grown on agrophonic beads. Plants are incubated at 28±2° C. for 15 days.

[3] = system: pks operon (PKS promoter); test: pks expression, amyE::Ppks-gfp fluorescence reporter; assay type: cell-based, B. subtilis
Experimental: FIGS. 3A:-3H Specialized host-derived metabolites increase PKS activity while B. subtilis biofilms increase plant Induced Systemic Resistance (ISR). (FIG. 3A) Quantification of pks expression (amyE::Ppks-gfp) in B. subtilis over time in response to different hydrophobicity fractions of plant root exudate. Expression was measured using fluorescent intensity of GFP fused to the PKS promoter. Color-coded curves indicate ascending methanol concentrations used for consecutive washings of root exudate from Silica-based bonded phase with strong hydrophobicity; darker curve indicates the first flow-through of the loaded root exudate from the silica cartridge. Orange curve indicate the pks expression kinetics without treatment. (FIG. 3B) Quantification of pks expression (amyE::Ppks-gfp) in B. subtilis over time in response to plant root metabolites. Expression was measured by fluorescent intensity of GFP fused to the PKS promotor. Color-coded curves indicate 5, 50,100 and 150 μM of the four metabolites: Methyl β-D-Glucopyranosid (upper left), Chromone (upper right), Chlorogenic acid (lower left) and Caffeic acid (lower right). Orange curve indicate the pks expression kinetics without treatment. (FIG. 3C) Fluorescence imaging of pks expression (amyE::Ppks-gfp) in a single cell resolution 5 h after B. subtilis was grown in MSgg (control) liquid culture supplemented with 150 μM of Chlorogenic acid and Caffeic acid. Images presented as over-layered channels of TL-phase and EGFP. Scale bar—[…]. […] Pathogenicity was measured in E. sativa seedlings whose roots were inoculated with B. subtilis, S. plymuthica and their combination in ratios of 1:1, 100:1 and 1:100. […]
Fluorescence microscopy. […] Cells were s visualized by fluorescence microscopy; Phase contrast and signal from Ppks-gfp (green) are shown. Fluorescent cell count and intensity levels were recorded for 10 fields in each treatment, at least 1000 cells were quantified for each treatment.

B. subtilis = test: Planktonic growth (OD600) in liquid MSgg; assay type: cell-based; conditions: caffeic acid at indicated concentrations, 30° C.
Experimental: Planktonic growth of wild type grown at 30° C. with shaking in liquid MSgg medium without (untreated) or caffeic acid at indicated concentrations was monitored by measuring OD600in a microplate reader. Results are averages of four wells within one experiment and their standard deviations. A representative of three independent experiments is shown.
as §1

[4] = system: B. subtilis 3610 biofilms; test: Biofilm maintenance (% coverage) on tomato roots in planta; assay type: in vivo; conditions: 1000 B. subtilis cells with or without materials, tomato plants on agrophonic beads
Experimental: (FIGS. 17A-17C) B. subtilis 3610 constantly expressing the fluorescent protein mKate2 was maintained on LB plates. 1000 cells either applied or non-applied with the materials indicated were added to tomato plants grown on agrophonic beads. % coverage was calculated based on quantifying 20 fields from the fluorescent microscope using Image J. Three replications were maintained for each assay. SD represents the average of three independent experiments.

O=C(/C=C/c1ccc(O)c(O)c1)O[C@@H]1C[C@](O)(C(=O)O)C[C@@H](O)[C@H]1O [chlorogenic acid]
pks activation in screen of plant metabolites [1]: activatespks operon; also recorded: induced pks activation

NCCCCN [putrescine]
effect on beneficial biofilms (stability / maintenance), single agent (B. subtilis biofilms): little or no biological effect | tomato plant survival after pseudomonas syringae pv. Tomato infection [2]: little or no biological effect on tomato plant survival

O=C(O)/C=C/c1ccc(O)c(O)c1 [caffeic acid]
number of cells expressing the pks operon ([3]; 150 μM, 5 h, single cell fluorescence): induced the number of cells expressing the pks operon | average pks expression level ([3]; 150 μM, single cell fluorescence, versus control): comparable to the control | pks (PKS) expression ([3]; B. subtilis amyE::Ppks-gfp, liquid MSgg, 5, 50, 100 and 150 μM): activatespks operon; also recorded: significantly enhanced PKS expression | planktonic growth of B. subtilis (B. subtilis): no impact on planktonic growth; also recorded: little or no effect on the growth of B. subtilis | duration of increased stability of bacterial beneficial biofilms (B. subtilis biofilms; caffeic acid alone, 100 μM, laboratory conditions): up to 4 days | effect on beneficial biofilms (stability / maintenance), single agent (B. subtilis biofilms): can promote biofilm maintenance | protective biofilms in planta on tomato roots (% coverage) [4]: sustained protective biofilms in planta on tomato roots | protective biofilms in planta on tomato roots (% coverage) ([4]; listed as Caffeic acid): can promote biofilm maintenance | tomato plant survival after pseudomonas syringae pv. Tomato infection [2]: increased tomato plant survival

O=c1ccc2cc(O)c(O)cc2o1 [aesculetin]
pks activation in screen of plant metabolites [1]: activatespks operon; also recorded: induced pks activation
